Laboratory results reported in US10227357B2, “Compounds and methods for kinase modulation, and indications therefor” (Plexxikon Inc., priority 2012, dated 2019).

Assays:
c-kit kinase = molecular target: T1, c-kit kinase (Homo sapiens, UniProt P10721); assay: c-Kit biochemical assay, AlphaScreen, 10 μM ATP; conditions: c-kit biochemical inhibitory activity; read-out: Biochemical activity (IC50 μM) Kit
T1 construct: The c-kit (or kinase domain thereof) is an active kinase in AlphaScreen; poly-Histidine tag (in-house protein only) (cleaved yes); host or cells: E. coli BL21(DE3)RIL, co-expressed with PTP1B
T1 sequence (P10721 26-976): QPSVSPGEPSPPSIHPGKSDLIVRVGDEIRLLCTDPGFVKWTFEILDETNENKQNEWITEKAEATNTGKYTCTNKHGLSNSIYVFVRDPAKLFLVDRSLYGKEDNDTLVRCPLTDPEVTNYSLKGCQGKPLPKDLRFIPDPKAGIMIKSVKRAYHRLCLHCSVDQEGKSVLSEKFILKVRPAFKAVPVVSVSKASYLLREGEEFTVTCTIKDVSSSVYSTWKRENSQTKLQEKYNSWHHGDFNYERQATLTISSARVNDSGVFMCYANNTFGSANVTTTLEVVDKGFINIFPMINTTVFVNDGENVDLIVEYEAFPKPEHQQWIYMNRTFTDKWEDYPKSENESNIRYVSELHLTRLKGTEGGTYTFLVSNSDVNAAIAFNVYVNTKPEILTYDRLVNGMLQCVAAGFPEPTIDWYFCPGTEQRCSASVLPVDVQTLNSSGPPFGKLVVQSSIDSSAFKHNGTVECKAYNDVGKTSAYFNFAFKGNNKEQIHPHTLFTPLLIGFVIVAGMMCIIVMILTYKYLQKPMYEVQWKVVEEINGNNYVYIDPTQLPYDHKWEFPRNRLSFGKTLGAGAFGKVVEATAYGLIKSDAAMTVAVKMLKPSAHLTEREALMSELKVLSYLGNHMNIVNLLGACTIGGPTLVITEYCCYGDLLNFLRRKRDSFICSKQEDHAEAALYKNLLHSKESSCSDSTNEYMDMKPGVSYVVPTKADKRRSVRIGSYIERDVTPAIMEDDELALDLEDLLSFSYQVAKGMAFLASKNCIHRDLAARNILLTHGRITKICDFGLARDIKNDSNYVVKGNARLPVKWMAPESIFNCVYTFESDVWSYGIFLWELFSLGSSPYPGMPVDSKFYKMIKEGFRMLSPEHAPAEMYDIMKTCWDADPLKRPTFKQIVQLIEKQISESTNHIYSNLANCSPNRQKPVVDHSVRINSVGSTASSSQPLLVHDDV
Procedure, shortened: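 His-tagged c-Kit expressed in E. coli with co-expressed PTP1B (dephosphorylated), tag removed; 0.1 ng per reaction with biotinylated-peptide substrate in 50 mM HEPES pH 7.2, 5 mM MgCl2, 5 mM MnCl2, 5% DMSO, 10 μM ATP, 1 h at room temperature. Phosphorylation detected by AlphaScreen (streptavidin donor, PY20 acceptor beads); IC50 from 8-point 1:3 dilution series.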

c-kit mutant D816V = molecular target: T2, c-kit mutant D816V (Homo sapiens, UniProt P10721, D816V/DEL694-753); assay: c-Kit mutant D816V biochemical assay, AlphaScreen; conditions: c-kit D816V biochemical inhibitory activity; read-out: Biochemical activity (IC50 μM) Kit D816V
T2 construct: residues 551-934, kinase insertion domain residues 694-753 deleted; 6x-histidine (N); made in house; host or cells: E. coli Arctic Express (DE3) RIL (Stratagene)
T2 sequence (P10721 with tags, fused parts or gaps DEL694-753/D816V): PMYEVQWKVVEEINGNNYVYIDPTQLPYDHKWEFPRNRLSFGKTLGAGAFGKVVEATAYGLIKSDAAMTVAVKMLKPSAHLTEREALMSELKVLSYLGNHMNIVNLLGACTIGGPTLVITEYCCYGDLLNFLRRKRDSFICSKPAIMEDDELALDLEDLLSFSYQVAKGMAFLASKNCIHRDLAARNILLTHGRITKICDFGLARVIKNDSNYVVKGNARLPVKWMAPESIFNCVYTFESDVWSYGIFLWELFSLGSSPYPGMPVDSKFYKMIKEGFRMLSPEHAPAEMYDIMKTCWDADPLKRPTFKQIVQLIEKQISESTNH
Procedure, shortened: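 Eight-point, threefold compound series incubated 30 min at room temperature with E. coli-produced D816V kinase, 10 μM ATP, Mg2+/Mn2+ HEPES buffer pH 7.2 and 5% DMSO. After EDTA stop, streptavidin and anti-phosphotyrosine (PY20) AlphaScreen beads gave the read-out, and IC50 was fitted from the concentration–signal curve.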

SMILES: Cc1cc2c(-c3ccc(NS(=O)(=O)c4cccc(Cl)c4)cc3F)ncnc2[nH]1 [P-0357, 3-chloro-N-[3-fluoro-4-(6-methyl-7H-pyrrolo[2,3-d]pyrimidin-4-yl)phenyl]benzenesulfonamide]
- IC50 (c-kit kinase): 1 to 10 µM
- IC50 (c-kit mutant D816V): 1 to 10 µM

SMILES: Cc1cc2c(-c3ccc(NS(=O)(=O)c4cccc(F)c4)cc3F)ncnc2[nH]1 [P-0358, 3-fluoro-N-[3-fluoro-4-(6-methyl-7H-pyrrolo[2,3-d]pyrimidin-4-yl)phenyl]benzenesulfonamide]
- IC50 (c-kit kinase): 1 to 10 µM
- IC50 (c-kit mutant D816V): 1 to 10 µM

SMILES: Cc1cc2c(-c3ccc(NS(=O)(=O)c4ccc(OC(F)F)cc4)c(F)c3)ncnc2[nH]1 [P-0360, 4-(difluoromethoxy)-N-[2-fluoro-4-(6-methyl-7H-pyrrolo[2,3-d]pyrimidin-4-yl)phenyl]benzenesulfonamide]
- IC50 (c-kit kinase): 1 to 10 µM
- IC50 (c-kit mutant D816V): 10 to 200 µM

SMILES: Cc1cc2c(-c3ccc(NS(=O)(=O)c4ccc(Cl)cc4F)c(F)c3)ncnc2[nH]1 [P-0361, 4-chloro-2-fluoro-N-[2-fluoro-4-(6-methyl-7H-pyrrolo[2,3-d]pyrimidin-4-yl)phenyl]benzenesulfonamide]
- IC50 (c-kit kinase): 0.0001 to 1 µM
- IC50 (c-kit mutant D816V): 1 to 10 µM

SMILES: Cc1cc2c(-c3ccc(NS(=O)(=O)c4ccc(F)cc4)cc3F)ncnc2[nH]1 [P-0362, 4-fluoro-N-[3-fluoro-4-(6-methyl-7H-pyrrolo[2,3-d]pyrimidin-4-yl)phenyl]benzenesulfonamide]
- IC50 (c-kit kinase): 1 to 10 µM
- IC50 (c-kit mutant D816V): 0.0001 to 1 µM

SMILES: COc1ccc(S(=O)(=O)Nc2ccc(-c3ncnc4[nH]c(C)cc34)c(F)c2)cc1 [P-0363, N-[3-fluoro-4-(6-methyl-7H-pyrrolo[2,3-d]pyrimidin-4-yl)phenyl]-4-methoxy-benzenesulfonamide]
- IC50 (c-kit kinase): 1 to 10 µM
- IC50 (c-kit mutant D816V): 1 to 10 µM

SMILES: Cc1cc2c(-c3ccc(NS(=O)(=O)c4cccc(Cl)c4F)cc3F)ncnc2[nH]1 [P-0364, 3-chloro-2-fluoro-N-[3-fluoro-4-(6-methyl-7H-pyrrolo[2,3-d]pyrimidin-4-yl)phenyl]benzenesulfonamide]
- IC50 (c-kit kinase): 10 to 200 µM
- IC50 (c-kit mutant D816V): 10 to 200 µM

SMILES: Cc1cc2c(-c3ccc(NS(=O)(=O)c4ccc(C)c(F)c4)cc3F)ncnc2[nH]1 [P-0365, 3-fluoro-N-[3-fluoro-4-(6-methyl-7H-pyrrolo[2,3-d]pyrimidin-4-yl)phenyl]-4-methyl-benzenesulfonamide]
- IC50 (c-kit kinase): 10 to 200 µM
- IC50 (c-kit mutant D816V): 1 to 10 µM

SMILES: Cc1cc2c(-c3ccc(NS(=O)(=O)c4ccc(OC(F)F)cc4)cc3F)ncnc2[nH]1 [P-0366, 4-(difluoromethoxy)-N-[3-fluoro-4-(6-methyl-7H-pyrrolo[2,3-d]pyrimidin-4-yl)phenyl]benzenesulfonamide]
- IC50 (c-kit kinase): 1 to 10 µM
- IC50 (c-kit mutant D816V): 1 to 10 µM

SMILES: [2H]C([2H])([2H])S(=O)(=O)Nc1ccc(-c2ncnc3[nH]c(-c4ccc(F)cc4)cc23)cc1F [P-0367, 1,1,1-trideuterio-N-[2-fluoro-4-[6-(4-fluorophenyl)-7H-pyrrolo[2,3-d]pyrimidin-4-yl]phenyl]methanesulfonamide]
- IC50 (c-kit kinase): 10 to 200 µM
- IC50 (c-kit mutant D816V): 0.0001 to 1 µM

SMILES: [2H]C([2H])([2H])S(=O)(=O)Nc1ccc(-c2ncnc3[nH]c(-c4ccc(F)cc4)cc23)c(F)c1 [P-0368, 1,1,1-trideuterio-N-[3-fluoro-4-[6-(4-fluorophenyl)-7H-pyrrolo[2,3-d]pyrimidin-4-yl]phenyl]methanesulfonamide]
- IC50 (c-kit kinase): 0.0001 to 1 µM
- IC50 (c-kit mutant D816V): 0.0001 to 1 µM

SMILES: O=S(=O)(NCC1CC1)c1ccc(-c2ncnc3[nH]c(-c4ccc(F)cc4)cc23)c(F)c1 [P-0369, N-(cyclopropylmethyl)-3-fluoro-4-[6-(4-fluorophenyl)-7H-pyrrolo[2,3-d]pyrimidin-4-yl]benzenesulfonamide]
- IC50 (c-kit kinase): 10 to 200 µM
- IC50 (c-kit mutant D816V): 1 to 10 µM

SMILES: Cc1cc2c(-c3ccc(NS(C)(=O)=O)cc3)ncnc2[nH]1 [P-0379, N-[4-(6-methyl-7H-pyrrolo[2,3-d]pyrimidin-4-yl)phenyl]methanesulfonamide]
- IC50 (c-kit kinase): 10 to 200 µM
- IC50 (c-kit mutant D816V): 1 to 10 µM

SMILES: CCS(=O)(=O)Nc1ccc(-c2ncnc3[nH]c(-c4ccc(F)cc4)cc23)c(F)c1 [P-0381, N-[3-fluoro-4-[6-(4-fluorophenyl)-7H-pyrrolo[2,3-d]pyrimidin-4-yl]phenyl]ethanesulfonamide]
- IC50 (c-kit kinase): 0.0001 to 1 µM
- IC50 (c-kit mutant D816V): 0.0001 to 1 µM

SMILES: CS(=O)(=O)Nc1ccc(-c2cc3c(-c4ccc(NS(C)(=O)=O)cc4F)ncnc3[nH]2)c(F)c1 [P-0382, N-[3-fluoro-4-[4-[2-fluoro-4-(methanesulfonamido)phenyl]-7H-pyrrolo[2,3-d]pyrimidin-6-yl]phenyl]methanesulfonamide]
- IC50 (c-kit kinase): 0.0001 to 1 µM
- IC50 (c-kit mutant D816V): 0.0001 to 1 µM

SMILES: O=S(=O)(Nc1ccc(-c2cc3c(-c4ccc(NS(=O)(=O)C5CC5)cc4F)ncnc3[nH]2)c(F)c1)C1CC1 [P-0387, N-[4-[4-[4-(cyclopropylsulfonylamino)-2-fluoro-phenyl]-7H-pyrrolo[2,3-d]pyrimidin-6-yl]-3-fluoro-phenyl]cyclopropanesulfonamide]
- IC50 (c-kit kinase): 1 to 10 µM
- IC50 (c-kit mutant D816V): 0.0001 to 1 µM

SMILES: CCCCS(=O)(=O)Nc1ccc(-c2cc3c(-c4ccc(NS(=O)(=O)CCCC)cc4)ncnc3[nH]2)cc1 [P-0388, N-[4-[4-[4-(butylsulfonylamino)phenyl]-7H-pyrrolo[2,3-d]pyrimidin-6-yl]phenyl]butane-1-sulfonamide]
- IC50 (c-kit kinase): 10 to 200 µM
- IC50 (c-kit mutant D816V): 0.0001 to 1 µM

SMILES: O=S(=O)(Nc1ccc(-c2cc3c(-c4ccc(NS(=O)(=O)C5CC5)cc4)ncnc3[nH]2)cc1)C1CC1 [P-0389, N-[4-[4-[4-(cyclopropylsulfonylamino)phenyl]-7H-pyrrolo[2,3-d]pyrimidin-6-yl]phenyl]cyclopropanesulfonamide]
- IC50 (c-kit kinase): 1 to 10 µM
- IC50 (c-kit mutant D816V): 0.0001 to 1 µM

SMILES: Cc1ccc(S(=O)(=O)Nc2ccc(-c3ncnc4[nH]c(C)cc34)cc2)cc1 [P-0390, 4-methyl-N-[4-(6-methyl-7H-pyrrolo[2,3-d]pyrimidin-4-yl)phenyl]benzenesulfonamide]
- IC50 (c-kit kinase): 1 to 10 µM
- IC50 (c-kit mutant D816V): 0.0001 to 1 µM

SMILES: O=S(=O)(Nc1ccc(-c2ncnc3[nH]c(-c4ccc(F)cc4)cc23)c(F)c1)c1ccc(Cl)cc1 [P-0396, 4-chloro-N-[3-fluoro-4-[6-(4-fluorophenyl)-7H-pyrrolo[2,3-d]pyrimidin-4-yl]phenyl]benzenesulfonamide]
- IC50 (c-kit kinase): 10 to 200 µM
- IC50 (c-kit mutant D816V): 0.0001 to 1 µM

SMILES: CCCS(=O)(=O)Nc1ccc(-c2ncnc3[nH]c(-c4ccc(F)cc4)cc23)c(F)c1 [P-0397, N-[3-fluoro-4-[6-(4-fluorophenyl)-7H-pyrrolo[2,3-d]pyrimidin-4-yl]phenyl]propane-1-sulfonamide]
- IC50 (c-kit kinase): 1 to 10 µM
- IC50 (c-kit mutant D816V): 0.0001 to 1 µM

SMILES: CS(=O)(=O)Nc1ccc(-c2ncnc3[nH]c(-c4ccc(F)cc4)cc23)c(F)c1 [P-0398, N-[3-fluoro-4-[6-(4-fluorophenyl)-7H-pyrrolo[2,3-d]pyrimidin-4-yl]phenyl]methanesulfonamide]
- IC50 (c-kit kinase): 0.0001 to 1 µM
- IC50 (c-kit mutant D816V): 0.0001 to 1 µM

SMILES: CS(=O)(=O)Nc1ccc(-c2ncnc3[nH]c(-c4ccc(F)cc4)cc23)cc1F [P-0399, N-[2-fluoro-4-[6-(4-fluorophenyl)-7H-pyrrolo[2,3-d]pyrimidin-4-yl]phenyl]methanesulfonamide]
- IC50 (c-kit kinase): 0.0001 to 1 µM
- IC50 (c-kit mutant D816V): 0.0001 to 1 µM

SMILES: O=S(=O)(Nc1ccc(-c2ncnc3[nH]c(-c4ccc(F)cc4)cc23)c(F)c1)C1CC1 [P-0401, N-[3-fluoro-4-[6-(4-fluorophenyl)-7H-pyrrolo[2,3-d]pyrimidin-4-yl]phenyl]cyclopropanesulfonamide]
- IC50 (c-kit kinase): 10 to 200 µM
- IC50 (c-kit mutant D816V): 0.0001 to 1 µM
